The values below come from ChEMBL document CHEMBL1152531, “Amphotericin B-induced ion flux is markedly attenuated in phosphatidylglycerol membrane as evidenced by a newly devised fluorometric method” (Bioorg Med Chem, 2009).

Each structure is given as a SMILES string. Active and inactive are the calls of the source. The rule behind the calls is not given here.

The nature of data set [1]: Membrane permeabilizing activity across 1-palmitoyl-2-oleoyl-sn-glycero-3-phosphocholine liposome assessed as K+ ion influx at compound to lipid ratio of 0.0001 to 0.001 after 18 hrs by BCECF staining-based fluorometric method. The conditions noted are these: artificial membrane. Type of data set: physicochemical.
Data set [2] is described as follows: Membrane permeabilizing activity across ergosterol-containing 1-palmitoyl-2-oleoyl-sn-glycero-3-phosphocholine liposome assessed as K+ ion influx at compound to lipid ratio of 0.0001 to 0.001 after 18 hrs by BCECF staining-based fluorometric method. Type of data set: physicochemical. The conditions noted are these: artificial membrane.
The nature of data set [3]: Membrane permeabilizing activity across cholesterol-containing 1-palmitoyl-2-oleoyl-sn-glycero-3-phosphocholine liposome assessed as K+ ion influx at compound to lipid ratio of 0.0001 to 0.001 after 18 hrs by BCECF staining-based fluorometric method. Type of data set: physicochemical. The conditions noted are these: artificial membrane.
Data set [4] can be described thus: Membrane permeabilizing activity across 1-palmitoyl-2-oleoyl-sn-glycero-3-phosphocholine liposome assessed as K+ ion influx at compound to lipid ratio of 0.001 to 0.01 after 18 hrs by BCECF staining-based fluorometric method. Type of data set: physicochemical. Particulars: artificial membrane.
Data set [5] in a line: Membrane permeabilizing activity across large unilamellar vesicle containing 1-palmitoyl-2-oleoyl-sn-glycero-3-phosphatidylglycerol and 30% 1-palmitoyl-2-oleoyl-sn-glycero-3-phosphocholine assessed as K+ ion influx at compound to lipid ratio of 0.001 to 0.01 after 18 hrs by BCECF staining-based fluorometric method. Type of data set: physicochemical.
Data set [6] is described as follows: Membrane permeabilizing activity across large unilamellar vesicle containing 1-palmitoyl-2-oleoyl-sn-glycero-3-phosphatidylglycerol and 10% 1-palmitoyl-2-oleoyl-sn-glycero-3-phosphocholine assessed as K+ ion influx at compound to lipid ratio of 0.001 to 0.01 after 18 hrs by BCECF staining-based fluorometric method. Type of data set: physicochemical.
A short description of data set [7]: Membrane permeabilizing activity across 1-palmitoyl-2-oleoyl-sn-glycero-3-phosphatidylglycerol liposome assessed as K+ ion influx at compound to lipid ratio of 0.001 to 0.01 after 18 hrs by BCECF staining-based fluorometric method. The conditions noted are these: artificial membrane. Type of data set: physicochemical.
Data set [8] relates to Lipid bilayer. Briefly: Binding affinity to 1-palmitoyl-2-oleoyl-sn-glycero-3-phosphocholine bilayer membrane at 6.3 uM after 18 hrs by UV spectroscopy.
Data set [9] has as its system Lipid bilayer. Briefly: Binding affinity to 1-palmitoyl-2-oleoyl-sn-glycero-3-phosphatidylglycerol bilayer membrane at 6.3 uM after 18 hrs by UV spectroscopy.
The nature of data set [10]: Binding affinity to bilayer membrane of 1-palmitoyl-2-oleoyl-sn-glycero-3-phosphatidylglycerol and 30% 1-palmitoyl-2-oleoyl-sn-glycero-3-phosphocholine at 6.3 uM after 18 hrs by UV spectroscopy.

`C[C@@H]1[C@H](O)[C@@H](C)/C=C/C=C/C=C/C=C/C=C/C=C/C=C/[C@H](O[C@@H]2O[C@H](C)[C@@H](O)[C@H](N)[C@@H]2O)C[C@@H]2O[C@](O)(C[C@@H](O)C[C@@H](O)[C@H](O)CC[C@@H](O)C[C@@H](O)CC(=O)O[C@H]1C)C[C@H](O)[C@H]2C(=O)O` [AMPHOTERICIN B]: the Activity entry is “Not Active” in [1]; “Active” in data set [2]; “Not Active” in data set [3]; “Active” in [4]; “Active” in [5]; “Active” in data set [6]. Further, in data set [7], the Activity entry is “Not Active”. Besides, the result in data set [8], in [9] and in [10] was Active.
